# Assay results taken from PMC9374667 (Communications Biology, 2022).
# Values joined by “and” are separate entries in the source; they are usually repeats but may differ in a detail not shown here. Equal entries are not always repeated.
# Assays:
# [1] = Solubility in water and octanol and log P at 25°C; conditions: for solubility: 25 °C
# Source text: beyond changes in oral bioavailability and solubility. This is particularly relevant when […]
# L og P is the logarithmic value of the oil-water partition coefficient P, which refers to the partition equilibrium of undissociated molecules in the oil and water phases. The log P value is closely related to the water solubility, membrane permeability, in vivo ADME process, and affinity of the compound to the receptor and plays a vital role in the permeation of compounds through biological membranes. The log P 0-5 range is optimal for oral drug penetration by passive diffusion, with poor water solubility for high log P compounds and poor lipid […]
# experiments to exert drug activity in cells.
# db/db mice [2] = experiment: Fasting serum insulin levels (ELISA); assay type: in vivo; set-up: insulin level (Figure 5b): unit not given here; conditions: db/db mice
# Procedure: Mice were fasted for 4 h for insulin resistance test and intraperitoneally injected with 1 unit/kg of insulin. Blood glucose levels were measured from the tail vein blood at 0, 15, 30, 45, 60, 90, and 120 min after injection. Plasma insulin levels were measured using an ultrasensitive mouse insulin ELISA kit (Nanjing Jiancheng Bioengineering Institute, Nanjing, China).
# db/db mice [3] = experiment: Serum CHO, TG, FFA, LDL-C, HDL-C and ADPN in the fasted state; assay type: in vivo; set-up: FFA (Figure 4g) / LDL-C (Figure 4h) / HDL-C (Figure 4i) / ADPN (Figure 4j): unit not given here; conditions: db/db mice
# Procedure: The serum was collected by centrifugation at 3000 × g at 4 °C for 15 min and stored at −80 °C until analysis. TG, TC, LDL-C, HDL-C, and FFA were routinely tested on a Chemray 240 automatic biochemical analyzer (Chemray 240, Shenzhen, China). Serum levels of mouse adiponectin, interleukin6 (IL-6), tumor necrosis factor-α (TNF-α) were measured using commercial enzyme-linked immunosorbent assay (ELISA) kits (Nanjing Jiancheng Bioengineering Institute, Nanjing, China) and according to the manufacturer’s instructions. The levels of IL-6, TNF-α in 3T3-L1 adipocyte culture supernatant were also detected by ELISA.
# db/db mice [4] = experiment: Weekly fasting glucose levels of db/db mice; assay type: in vivo; conditions: for Weekly fasting glucose levels of db/db mice (Figure 5a): BBR 150mg/kg, individual mice 1-10, in mmol/L
# Procedure: (§1) The lean wild type control and the db/db control mice were given equal vehicle volume (0.5% CMC-Na solution). All mice were monitored for food intake, body weight, and fasting blood glucose during the 35-day trial. Glucose tolerance test (GTT) and insulin resistance test (ITT) were performed at 4 and 5 weeks of treatment, respectively. Metabolic analysis was performed at 5 weeks of treatment. At the end of the study, blood samples were taken through the retroorbital venous sinus of mice, fat depots (brown fat, inguinal subcutaneous fat, epididymal fat, perirenal fat and mesenteric fat depot) were dissected, weighed, and immediately frozen in liquid nitrogen and stored at −80 °C until required. Weight of fat depots are expressed in percentage (fat depots weight /bodyweight * 100%).
# db/db mice [5] = experiment: Body weight of db/db mice during 35-day treatment; assay type: in vivo; conditions: db/db mice
# Procedure: as §1
# p-TBK1, p-AMPKα, UCP1 = experiment: Western blotting of TNF-α induced 3T3-L1 adipocytes; assay type: cell-based, Murine; set-up: p-TBK1 / p-AMPKα (western blotting, Figure 7j) / UCP1 (western blotting, Figure 7k): unit not given here
# Procedure: The adipose tissue or 3T3-L1 adipocytes were homogenized by ultrasound in an ice‐cold RIPA lysis buffer containing 1% PMSF and centrifuged at 12,000 × g at 4°C for 15 min to collect the supernatant. The BCA protein assay kit (Beyotime, Shanghai, China) was used to detect the total protein concentration. Proteins (20-30 μg) of the sample were separated by 10% SDS-PAGE gel and transferred onto polyvinylidene difluoride (PVDF) membranes. Then the PVDF membranes were blocked in 5% skim milk powder in TBS containing 1% Tween-20 (TBST) for 2 h at room temperature and washed with TBST for 3 times. The membranes were incubated with the appropriate primary antibody, IKKε (1:1000 dilution), TBK1 (1:1000 dilution), p-TBK1 Ser172 (1:1000 dilution), p-AMPKα Thr172 (1:1000 dilution), UCP1 (1:1000 dilution), and GAPDH (1:1000 dilution) in the blocking buffer solution at 4 °C overnight. After washing, the membranes were incubated with horseradish peroxidase-conjugated secondary antibodies (in 5% skim milk powder) for 1 h at room temperature. Finally, the membranes were treated with enhanced chemiluminescence agents (Tanon, Shanghai, China) and the signals were monitored using the Tanon 5200 multi chemiluminescent imaging system (Tanon, Shanghai, China).
# [6] = BBR 150mg/kg, serum, individual mice 1-6
# [7] = 150 mg/kg, fasted state, individual mice
# [8] = vs vehicle, BJ 75 and 150 mg/kg, BBR 150 mg/kg, Ibu 150 mg/kg
# [9] = Tnfa + 10um, 3T3-L1 adipocytes, replicates 1-3
smiles,measurement,setting,value
"COc1ccc2cc3[n+](cc2c1OC)CCc1cc2c(cc1-3)OCO2 [BBR, Berberine chloride dihydrate]",solubility,"[1]; octanol, organic solvent or mixture",14.3 ± 0.41 µM
same,logP,[1]; octanol/water,-0.041
same,solubility,[1]; water,15.8 ± 0.81 µM
same,insulin level (Figure 5b),"db/db mice [2]; BBR 150mg/kg, fasting serum, individual mice 1-6",14.8249 and 14.5179 and 14.1979 and 10.7342 and 12.3345 and 12.7422
same,Fasting serum insulin levels,"db/db mice [2]; 150 mg/kg, 35 days of treatment, vs vehicle",did not produce significant effects
same,ADPN (Figure 4j),db/db mice [3]; [6],531.25 and 533.16 and 569.22 and 520.27 and 517.83 and 573.58
same,FFA (Figure 4g),db/db mice [3]; [6],783.9 and 765.7 and 789.7 and 738.2 and 717.7 and 741.1
same,HDL-C (Figure 4i),db/db mice [3]; [6],2.5 and 2.8 and 2.4 and 2.7 and 3
same,LDL-C (Figure 4h),db/db mice [3]; [6],4.79 and 4.96 and 3.72 and 5.17 and 5.15
same,Serum CHO,db/db mice [3]; [7],4 mmol/L and 4.5 mmol/L and 5.2 mmol/L and 4.6 mmol/L and 4.2 mmol/L
same,Serum TG,db/db mice [3]; [7],1.66 mmol/L and 1.22 mmol/L and 1.5 mmol/L and 1 mmol/L and 0.96 mmol/L and 1.18 mmol/L
same,"Serum levels of CHO, TG, FFA and LDL-C",db/db mice [3]; [8],decreased
same,Serum levels of HDL-C and adiponectin (ADPN),db/db mice [3]; [8],increased
same,Weekly fasting glucose levels of db/db mice (Figure 5a),db/db mice [4]; 1st of 6 weekly columns (time not given),17.4 and 11.5 and 21.8 and 12.0 and 11.7 and 15.7 and 14.9 and 17.1
same,Weekly fasting glucose levels of db/db mice (Figure 5a),db/db mice [4]; 2nd of 6 weekly columns (time not given),26.2 and 16.0 and 21.2 and 18.4 and 15.0 and 21.3 and 21.6 and 19.3 and 16.9
same,Weekly fasting glucose levels of db/db mice (Figure 5a),db/db mice [4]; 3rd of 6 weekly columns (time not given),23.6 and 18.7 and 19.5 and 20.6 and 21.5 and 23.7 and 13.1 and 20.7 and 20.5
same,Weekly fasting glucose levels of db/db mice (Figure 5a),db/db mice [4]; 4th of 6 weekly (time not given),19.5 and 14.4 and 15.7 and 19.0 and 17.0 and 19.2 and 9.3 and 10.1 and 18.3 and 13.0
same,Weekly fasting glucose levels of db/db mice (Figure 5a),db/db mice [4]; 5th of 6 weekly (time not given),18.5 and 10.1 and 10.6 and 12.8 and 13.2 and 9.4 and 10.5 and 8.4 and 10.7 and 13.3
same,Weekly fasting glucose levels of db/db mice (Figure 5a),db/db mice [4]; 6th of 6 weekly (time not given),15.5 and 9.3 and 11.4 and 15.8 and 10.5 and 10.2 and 10.0 and 9.8 and 13.5
same,Fasting blood glucose level at the end of the treatment,"db/db mice [4]; db/db mice, 150 mg/kg, vehicle rose from 14.4 ± 3.4 to 23.9 ± 3.4",11.6 ± 2.4 mmol/L
same,Blood (serum) glucose levels compared with vehicle,"db/db mice [4]; db/db mice, BJ 75 and 150 mg/kg, BBR 150 mg/kg, Ibu 150 mg/kg",slowed the increase in glucose levels
same,Body weight,"db/db mice [5]; 150 mg/kg gavage once per day, day 1, individual mice, 150 mg/kg",41 grams and 40 grams and 42 grams and 36 grams and 39 grams and 37 grams
same,Body weight,"db/db mice [5]; 150 mg/kg gavage once per day, day 4, individual mice, 150 mg/kg",40 grams and 41 grams and 37 grams and 39 grams
same,Body weight,"db/db mice [5]; 150 mg/kg gavage once per day, day 7, individual mice, 150 mg/kg",42 grams and 43 grams and 37 grams and 38 grams and 39 grams and 41 grams
same,Body weight,"db/db mice [5]; 150 mg/kg gavage once per day, day 10, individual mice, 150 mg/kg",42 grams and 43 grams and 44 grams and 38 grams and 39 grams and 40 grams
same,Body weight,"db/db mice [5]; 150 mg/kg gavage once per day, day 13, individual mice, 150 mg/kg",43 grams and 44 grams and 38 grams and 39 grams and 41 grams
same,Body weight,"db/db mice [5]; 150 mg/kg gavage once per day, day 16, individual mice, 150 mg/kg",45 grams and 43 grams and 44 grams and 38 grams and 39 grams and 42 grams and 41 grams
same,Body weight,"db/db mice [5]; 150 mg/kg gavage once per day, day 19, individual mice, 150 mg/kg",44 grams and 43 grams and 37 grams and 40 grams and 42 grams
same,Body weight,"db/db mice [5]; 150 mg/kg gavage once per day, day 22, individual mice, 150 mg/kg",42 grams and 45 grams and 41 grams and 39 grams and 43 grams and 44 grams
same,Body weight,"db/db mice [5]; 150 mg/kg gavage once per day, day 25, individual mice, 150 mg/kg",42 grams and 46 grams and 43 grams and 38 grams and 39 grams and 44 grams and 40 grams and 45 grams
same,Body weight,"db/db mice [5]; 150 mg/kg gavage once per day, day 28, individual mice, 150 mg/kg",44 grams and 47 grams and 43 grams and 39 grams and 45 grams and 46 grams
same,Body weight,"db/db mice [5]; 150 mg/kg gavage once per day, day 31, individual mice, 150 mg/kg",46 grams and 48 grams and 49 grams and 41 grams and 42 grams and 47 grams and 43 grams and 45 grams
same,Body weight,"db/db mice [5]; 150 mg/kg gavage once per day, day 34, individual mice, 150 mg/kg",48 grams and 46 grams and 50 grams and 51 grams and 43 grams and 47 grams and 45 grams
same,Average body weight gain,"db/db mice [5]; 150 mg/kg gavage once per day, day 35, mean ± SD",7.6 ± 0.8 g
same,Body weight gain in 5 weeks,"db/db mice [5]; 150 mg/kg gavage once per day, individual mice, 150 mg/kg",8 grams and 7 grams and 6 grams and 9 grams
same,Body weight compared with vehicle,"db/db mice [5]; 5 weeks, BJ 75 and 150 mg/kg, BBR 150 mg/kg, Ibu 150 mg/kg",lower body weight than the db/db mice treated with the vehicle
same,p-TBK1,"p-TBK1, p-AMPKα, UCP1; Figure 7i, Tnfa + 10um BBR, replicates",0.5119 and 0.483 and 0.454
same,"UCP1 (western blotting, Figure 7k)","p-TBK1, p-AMPKα, UCP1; [9]",0.8587 and 1.148 and 0.9274
same,"p-AMPKα (western blotting, Figure 7j)","p-TBK1, p-AMPKα, UCP1; [9]",0.5058 and 0.5536 and 0.7822
